Test [1] deals with LPS-stimulated mouse B cells. Put plainly: IgM secretion by ELISA. In kind it is cell-based. The conditions noted are these: supernatant after 3 days. The text has this: We also evaluated plasmablast differentiation and IgM secretion in LPS-stimulated cells (Figure 5D). […] In cells treated with IPI-3063 or IPI-443, the highest concentrations inhibited plasmablast differentiation to the same degree as GDC-0941.
For cell culture ELISA to measure total IgM, supernatants from purified B cells stimulated with LPS were collected after 3 days and diluted 1:1,000 in 2% (wt/vol) BSA in PBS. Nunc Maxisorp plates (Thermo Fisher) were coated with anti-mouse IgM (RMM-1; BioLegend) at 10 µg/mL in 50 µL of total sample in PBS and allowed to incubate overnight at 4°C. Diluted supernatant samples were incubated on coated plates for 1 h at 37°C. HRP-conjugated rabbit anti-mouse IgM secondary antibody (Zymed) was used.
Background: In an ELISA, binding on a coated surface is turned into a signal by an enzyme label.

Test [2] addresses T1, p110α (Homo sapiens, UniProt P42336).
T1 construct: heterodimers consisting of full length p110α, p110β, or p110δ catalytic subunit and the p85α regulatory subunit; purchased Millipore 14-602-K
Put plainly: PI3K enzymatic assay (ADP-Glo) with purified enzymes. The conditions noted are these: purified enzyme, mean ± spread (n), read-out: Biochemical IC50. On the procedure: (§1) Human recombinant PI3K-α (cat. no. 14-602-K), -β (cat. no. 14-603-K), -δ (cat. no. 14-604-K), and -γ (cat. no. 14-558-K) were purchased from Millipore. Phosphatidylinositol 4,5 bis phosphate (diC8-PtdIns(4,5)P2) was purchased from Avanti Polar Lipids, Inc. PI3K-α, β, and δ are heterodimers consisting of full length p110α, p110β, or p110δ catalytic subunit and the p85α regulatory subunit. PI3K-γ is a monomer of the p110γ catalytic subunit. Samples of kinase (10 nM—α, β, and δ; 20 nM—γ) were incubated with inhibitor for 30 min at room temperature in reaction buffer (15 mM HEPES pH 7.4, 20 mM NaCl, 1 mM EGTA, 0.02% Tween 20, 10 mM MgCl2, 0.2 mg/mL bovine-γ-globulins) followed by addition of ATP/diC8-PtdIns(4,5)P2 mixture to give final concentrations of 3 mM ATP and 500 µM diC8-PtdIns(4,5)P2. Reactions were incubated at room temperature for 2 h, with PI3K activity assessed via the Promega ADP-Glo Max assay kit (cat. no. V7002) according to the manufacturer’s instruction. Plates were read on Envision plate reader in luminescence mode.
(In ADP-Glo the light output rises with the ADP produced.)

Test [3] concerns the target T2, p110γ (Homo sapiens, UniProt P48736).
T2 construct: purchased Millipore 14-558-K
The description is as above. The conditions noted are these: purified enzyme, mean ± spread (n), read-out: Biochemical IC50. The protocol:
as §1

In test [4] the target is T3, p110δ (Homo sapiens, UniProt O00329).
T3 construct: heterodimers consisting of full length p110α, p110β, or p110δ catalytic subunit and the p85α regulatory subunit; purchased Millipore 14-604-K
T3 sequence (O00329 whole entry): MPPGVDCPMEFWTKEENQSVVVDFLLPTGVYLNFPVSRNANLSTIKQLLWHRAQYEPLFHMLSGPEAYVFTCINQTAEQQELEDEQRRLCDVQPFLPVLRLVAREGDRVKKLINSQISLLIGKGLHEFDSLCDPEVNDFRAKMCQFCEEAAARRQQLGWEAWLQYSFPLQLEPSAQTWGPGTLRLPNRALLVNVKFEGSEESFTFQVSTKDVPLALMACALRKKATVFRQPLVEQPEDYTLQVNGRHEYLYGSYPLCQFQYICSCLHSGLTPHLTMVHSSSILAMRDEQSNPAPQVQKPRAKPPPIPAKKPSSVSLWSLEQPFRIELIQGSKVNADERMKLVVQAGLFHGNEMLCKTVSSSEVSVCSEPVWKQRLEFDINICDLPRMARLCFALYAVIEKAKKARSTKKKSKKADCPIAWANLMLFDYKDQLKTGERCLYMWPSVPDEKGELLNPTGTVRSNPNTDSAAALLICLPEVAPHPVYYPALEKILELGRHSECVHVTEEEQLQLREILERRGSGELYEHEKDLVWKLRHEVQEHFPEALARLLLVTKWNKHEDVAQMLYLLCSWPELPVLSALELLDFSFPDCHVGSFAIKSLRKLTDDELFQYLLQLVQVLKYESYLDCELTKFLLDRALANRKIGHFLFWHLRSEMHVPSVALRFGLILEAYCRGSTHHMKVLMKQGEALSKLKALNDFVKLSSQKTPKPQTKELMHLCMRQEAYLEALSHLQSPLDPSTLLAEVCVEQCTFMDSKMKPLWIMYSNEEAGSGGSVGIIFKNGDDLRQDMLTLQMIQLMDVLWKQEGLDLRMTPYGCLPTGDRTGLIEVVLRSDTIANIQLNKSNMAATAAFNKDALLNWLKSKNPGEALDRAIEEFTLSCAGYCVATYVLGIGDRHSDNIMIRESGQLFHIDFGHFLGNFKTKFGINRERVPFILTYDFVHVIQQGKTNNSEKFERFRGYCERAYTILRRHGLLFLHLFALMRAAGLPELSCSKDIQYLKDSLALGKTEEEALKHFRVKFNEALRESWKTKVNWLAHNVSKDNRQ
T3 sequence (P27986 whole entry partner): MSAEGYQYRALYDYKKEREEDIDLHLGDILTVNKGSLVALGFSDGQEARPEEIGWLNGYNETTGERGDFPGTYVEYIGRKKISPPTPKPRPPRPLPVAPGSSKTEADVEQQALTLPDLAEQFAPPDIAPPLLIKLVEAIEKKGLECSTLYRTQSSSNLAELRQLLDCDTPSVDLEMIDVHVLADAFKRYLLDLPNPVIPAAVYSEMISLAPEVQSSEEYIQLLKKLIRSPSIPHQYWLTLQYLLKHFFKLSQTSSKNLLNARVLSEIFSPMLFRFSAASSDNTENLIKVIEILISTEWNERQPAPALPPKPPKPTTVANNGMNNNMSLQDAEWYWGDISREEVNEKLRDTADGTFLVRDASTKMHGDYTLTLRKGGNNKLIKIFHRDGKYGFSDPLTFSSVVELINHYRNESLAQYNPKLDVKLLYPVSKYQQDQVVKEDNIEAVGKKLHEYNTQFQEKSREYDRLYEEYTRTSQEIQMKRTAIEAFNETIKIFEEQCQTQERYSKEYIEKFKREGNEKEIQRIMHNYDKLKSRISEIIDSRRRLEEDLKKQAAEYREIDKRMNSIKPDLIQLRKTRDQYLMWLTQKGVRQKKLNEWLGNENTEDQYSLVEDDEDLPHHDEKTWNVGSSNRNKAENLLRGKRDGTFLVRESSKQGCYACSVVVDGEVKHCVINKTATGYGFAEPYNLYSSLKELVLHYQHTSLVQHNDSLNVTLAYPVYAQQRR
The test is described as above. The conditions noted are these: purified enzyme, mean ± spread (n), read-out: Biochemical IC50. On the procedure: as §1

The target of test [5] is p110β (Homo sapiens, UniProt P42338). Described as above. The conditions noted are these: purified enzyme, mean ± spread (n), read-out: Biochemical IC50. More on the design: heterodimers consisting of full length p110α, p110β, or p110δ catalytic subunit and the p85α regulatory subunit; purchased Millipore 14-603-K. On the procedure:
as §1

By IC50 is commonly meant the midpoint of a concentration-inhibition curve.

Each structure is given as a SMILES string.

T2 sequence (P48736 whole entry): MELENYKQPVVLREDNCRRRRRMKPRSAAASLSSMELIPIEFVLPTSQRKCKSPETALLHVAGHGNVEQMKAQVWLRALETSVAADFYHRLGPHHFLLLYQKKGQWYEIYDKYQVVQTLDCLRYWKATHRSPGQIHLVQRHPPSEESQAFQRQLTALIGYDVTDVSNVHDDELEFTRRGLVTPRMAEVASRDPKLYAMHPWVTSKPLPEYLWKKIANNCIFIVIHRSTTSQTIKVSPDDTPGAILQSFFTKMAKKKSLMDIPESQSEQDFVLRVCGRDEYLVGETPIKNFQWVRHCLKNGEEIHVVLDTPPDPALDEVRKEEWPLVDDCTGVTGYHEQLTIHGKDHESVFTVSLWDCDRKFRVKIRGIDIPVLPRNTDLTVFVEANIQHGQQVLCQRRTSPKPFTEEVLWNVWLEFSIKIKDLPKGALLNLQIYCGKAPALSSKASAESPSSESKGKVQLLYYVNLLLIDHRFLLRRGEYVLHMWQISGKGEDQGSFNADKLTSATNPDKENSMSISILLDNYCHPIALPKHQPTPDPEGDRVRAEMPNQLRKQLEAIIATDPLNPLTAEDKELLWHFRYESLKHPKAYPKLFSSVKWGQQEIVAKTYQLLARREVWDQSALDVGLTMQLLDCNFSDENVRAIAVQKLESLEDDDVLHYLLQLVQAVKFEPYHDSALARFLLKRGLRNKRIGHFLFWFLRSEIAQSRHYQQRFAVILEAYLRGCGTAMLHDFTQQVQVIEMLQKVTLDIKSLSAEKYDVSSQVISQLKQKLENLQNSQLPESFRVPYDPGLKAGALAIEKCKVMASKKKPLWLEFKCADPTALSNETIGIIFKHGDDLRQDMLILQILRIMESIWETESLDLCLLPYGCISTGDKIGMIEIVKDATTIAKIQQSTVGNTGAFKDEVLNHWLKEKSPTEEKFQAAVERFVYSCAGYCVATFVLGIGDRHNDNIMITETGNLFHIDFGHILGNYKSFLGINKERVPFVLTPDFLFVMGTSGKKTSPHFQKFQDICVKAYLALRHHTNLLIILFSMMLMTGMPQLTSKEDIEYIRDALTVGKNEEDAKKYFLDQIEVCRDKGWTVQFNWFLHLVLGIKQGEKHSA
Chain of p110β (P42338 whole entry): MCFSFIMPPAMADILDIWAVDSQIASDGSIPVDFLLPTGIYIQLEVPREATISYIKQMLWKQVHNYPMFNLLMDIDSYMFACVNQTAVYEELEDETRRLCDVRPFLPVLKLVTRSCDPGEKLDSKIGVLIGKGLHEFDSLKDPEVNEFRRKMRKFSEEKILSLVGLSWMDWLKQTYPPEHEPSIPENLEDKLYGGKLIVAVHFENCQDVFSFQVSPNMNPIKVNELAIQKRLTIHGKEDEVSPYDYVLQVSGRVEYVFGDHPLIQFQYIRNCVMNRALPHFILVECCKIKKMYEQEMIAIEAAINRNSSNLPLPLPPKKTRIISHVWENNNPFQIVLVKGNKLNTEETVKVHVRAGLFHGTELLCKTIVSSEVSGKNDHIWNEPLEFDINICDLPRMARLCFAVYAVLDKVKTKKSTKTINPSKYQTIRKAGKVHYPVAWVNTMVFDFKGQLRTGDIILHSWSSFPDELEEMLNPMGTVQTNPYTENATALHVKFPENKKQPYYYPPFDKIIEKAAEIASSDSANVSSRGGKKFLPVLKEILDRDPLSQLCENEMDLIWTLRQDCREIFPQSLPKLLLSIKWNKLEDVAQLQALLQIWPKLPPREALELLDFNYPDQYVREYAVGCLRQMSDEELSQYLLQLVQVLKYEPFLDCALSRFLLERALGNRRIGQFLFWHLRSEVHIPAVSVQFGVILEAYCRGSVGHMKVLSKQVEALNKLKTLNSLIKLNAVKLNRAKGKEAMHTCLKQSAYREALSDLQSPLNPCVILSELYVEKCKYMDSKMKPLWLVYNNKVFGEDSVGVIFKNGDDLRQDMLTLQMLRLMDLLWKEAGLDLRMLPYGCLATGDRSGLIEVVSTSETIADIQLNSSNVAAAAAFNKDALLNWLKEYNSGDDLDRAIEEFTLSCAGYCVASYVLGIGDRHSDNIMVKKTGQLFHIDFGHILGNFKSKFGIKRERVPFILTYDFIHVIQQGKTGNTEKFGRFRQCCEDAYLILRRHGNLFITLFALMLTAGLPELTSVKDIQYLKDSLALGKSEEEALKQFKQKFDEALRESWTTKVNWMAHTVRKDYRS
Chain of p110β (P27986 whole entry partner): as the sequence (P27986 whole entry partner) above
T1 sequence (P42336 whole entry): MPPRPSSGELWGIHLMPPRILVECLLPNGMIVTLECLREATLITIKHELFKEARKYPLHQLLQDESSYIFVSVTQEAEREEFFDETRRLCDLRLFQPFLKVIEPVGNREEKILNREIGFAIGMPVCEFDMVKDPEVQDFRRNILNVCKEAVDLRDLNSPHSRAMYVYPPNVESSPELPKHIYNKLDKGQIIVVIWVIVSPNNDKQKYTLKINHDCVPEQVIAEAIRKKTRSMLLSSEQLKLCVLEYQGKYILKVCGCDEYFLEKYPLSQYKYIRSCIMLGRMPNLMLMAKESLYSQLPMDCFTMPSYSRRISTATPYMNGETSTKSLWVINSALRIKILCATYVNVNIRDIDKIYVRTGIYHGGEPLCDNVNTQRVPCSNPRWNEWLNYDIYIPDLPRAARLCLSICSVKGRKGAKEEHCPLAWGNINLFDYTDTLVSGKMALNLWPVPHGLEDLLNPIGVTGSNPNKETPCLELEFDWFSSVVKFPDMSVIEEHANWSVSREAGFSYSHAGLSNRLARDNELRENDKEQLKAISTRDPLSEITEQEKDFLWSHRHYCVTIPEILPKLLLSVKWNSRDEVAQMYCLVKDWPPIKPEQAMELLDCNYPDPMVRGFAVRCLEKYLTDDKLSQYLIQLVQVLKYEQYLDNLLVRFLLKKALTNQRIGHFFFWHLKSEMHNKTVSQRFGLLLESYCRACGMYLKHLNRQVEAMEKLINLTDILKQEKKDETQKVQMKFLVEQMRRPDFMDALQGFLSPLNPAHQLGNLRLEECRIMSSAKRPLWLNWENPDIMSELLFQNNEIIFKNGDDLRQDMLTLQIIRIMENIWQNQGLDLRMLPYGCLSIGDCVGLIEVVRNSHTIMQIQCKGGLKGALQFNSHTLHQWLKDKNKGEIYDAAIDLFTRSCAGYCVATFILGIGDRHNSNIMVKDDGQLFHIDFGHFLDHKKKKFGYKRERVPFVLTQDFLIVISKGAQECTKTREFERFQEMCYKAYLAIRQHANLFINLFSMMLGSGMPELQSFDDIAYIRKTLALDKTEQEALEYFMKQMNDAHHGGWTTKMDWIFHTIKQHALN
T1 sequence (P27986 whole entry partner): as the sequence (P27986 whole entry partner) above

For the molecule `O=C1NC(=O)/C(=C/c2ccc(-c3ccc(F)cc3O)o2)S1` [AS-252424, reference compound], in test [1], the “effect on IgM secretion” value was “no significant effect”.

With `CC(C)n1c([C@H](C)Nc2ncnc(N)c2C#N)cc2cccc(-c3ccc(=O)n(C)c3)c2c1=O` [IPI-3063], the half-maximal inhibitory concentration (IC50) turned out to be 1170 nM in test [2], 2190 nM in test [3], 2.5 ± 1.2 nM in test [4] and 1510 nM in test [5].
